According to patent US12485117B2, “Compositions and methods for activating signaling through the CB1 cannabinoid receptor for treating and preventing diseases and disorders characterized by abnormal cellular accumulation of sphingolipids such as sphingomyelin” (Wylder Nation Foundation, priority 2018, dated 2025):

Assays:
[1] = cited from earlier work
anandamide levels = assay: Anandamide levels by mass spectrometry in the hippocampus; type: in vivo, mouse; details: 0.3 mg/kg every three days
Description: FIGS. 18A-18B show hippocampal anandamide and CB1 levels in wt and ASMko mice treated or not treated with PF-04457845. […] Graphs show mean±SEM CB1 intensity in arbitrary units (n=5, *p<0.05).
(§1) Treatment started at 7 weeks of age and continued for 8 weeks. PF-04457845 was dissolved in 0.9% NaCl and delivered through oral gavage at a dose of 0.3 mg/kg every three days. We chose this dose based on the studies published by Ahn et al., (J Pharm Exp Ther 2011). Control groups received same volume of 0.9% NaCl without PF-04457845.
PF-04457845 inhibits the enzyme (FAAH) that hydrolyzes the endocannabinoid anandamide, which in turn activates the CB1 receptor leading to neutral sphingomyelinase activation and sphingomyelin hydrolysis. To determine the effects of PF-04457845 treatment in the endocannabinoid system we analyzed anandamide and CB1 levels in the brain of PF-04457845 treated and non-treated mice.

wt and ASMko mice [2] = assay: Elevated Plus Maze test; type: in vivo, mouse; details: 0.3 mg/kg every three days
Description: FIGS. 13A-13C show the effect of PF-04457845 treatment on various behavioral functions. […] (n=14; **p<0.01, *p<0.05).
as §1
Mood alterations were monitored by the Tail Suspension Test (FIG. 13B) and by the Elevated Plus Maze test (FIG. 13C) that give an idea of depressive state and anxiety, respectively. […] PF-04457845 treatment had no effect in the behavior of wt mice.

wt and ASMko mice [3] = assay: Acute toxicity: SM and ceramide levels in blood; type: in vivo, mouse
Description: We divided wt and ASMko mice of 4.5 months of age in six experimental groups: ASMko control (n=3), ASMko low dose (n=3), ASMko intermediate dose (n=3), ASMko high dose (n=3), wt control (n=3), wt high dose (n=3). PF-04457845, provided as powder, was dissolved in 0.9% NaCl and administered to mice through oral gavage. Vehicle groups received same volume of 0.9% NaCl.
After these 48 hours and immediately before termination we collected blood from mice and prepared serum by leaving blood samples 30 minutes for clotting at room temperature and by collecting the supernatant after centrifugation at 6000 rpm for 10 minutes. Following termination, mice were transcardially perfused with phosphate-buffered saline (PBS).
SM and ceramide levels were also monitored in the blood of wt and ASMko mice with and without PF-04457845 treatment as a readout of acute toxicity.

wt and ASMko mice [4] = assay: Sphingomyelin levels by enzymatic assay in tissue extracts after 8-week treatment; type: in vivo, mouse; details: 0.3 mg/kg every three days, 8 weeks
Description: as §1
Sphingomyelin levels were measured by enzymatic assays in extracts of different brain areas and in liver, spleen, and lung (FIG. 14).

O=C(Nc1cccnn1)N1CCC(=Cc2cccc(Oc3ccc(C(F)(F)F)cn3)c2)CC1 [PF-04457845]
tolerability of much higher doses in healthy humans ([1]; Li et al., 2011): well tolerated
safety in healthy humans ([1]; Ling et al., BJCP 2011): safety in healthy humans has been already demonstrated
dose sufficient, well tolerated and providing maximal effects on FAAH activity and fatty acid amide elevation ([1]; once daily, healthy humans, Li et al., Br J Clin Pharmacol 2011): 0.5 mg
increase of anandamide levels in the hippocampus (anandamide levels; ASMko mice): 1.96 fold
increase of anandamide levels in the hippocampus (anandamide levels; wt mice): 2.09 fold
behavior in Elevated Plus Maze test (anxiety) (wt and ASMko mice [2]; ASMko mice): normalized
behavior in Elevated Plus Maze test (wt and ASMko mice [2]; wt mice): no effect
SM levels in blood (wt and ASMko mice [3]; ASMko mice, single doses 0.1, 1, 5 mg/kg (data not shown)): moderate dose-dependent decrease
ceramide levels in blood (wt and ASMko mice [3]; single dose of 0.1 mg/kg (data not shown)): high variability with a tendency to increase
ceramide levels in blood (wt and ASMko mice [3]; single dose of 1 mg/kg (data not shown)): decreased
ceramide levels in blood (wt and ASMko mice [3]; single dose of 5 mg/kg (data not shown)): decreased
sphingomyelin levels in cerebellum (wt and ASMko mice [4]; ASMko mice): significant reduction of sphingomyelin
sphingomyelin levels in cortex (wt and ASMko mice [4]; ASMko mice): significant reduction of sphingomyelin
sphingomyelin levels in hippocampus (wt and ASMko mice [4]; ASMko mice): significant reduction of sphingomyelin
sphingomyelin levels in liver (wt and ASMko mice [4]; ASMko mice): significant reduction of sphingomyelin
sphingomyelin levels in lung (wt and ASMko mice [4]; ASMko mice): non-statistically significant trend towards a decrease
sphingomyelin levels in spleen (wt and ASMko mice [4]; ASMko mice): significant reduction of sphingomyelin
sphingomyelin levels in tissues (wt and ASMko mice [4]; wt mice): did not alter sphingomyelin levels
